PubChem BioAssay AID1963427 (Molecular Pharmacology Branch, DTP, NCI, 2024)

Test system: 317291-083-R-J1-PDC complex spheroid growth
Assay: Anticancer human tumor 317291-083-R-J1-PDC patient-derived soft tissue sarcoma cell line growth inhibition [Asc]
Settings: for IC50: curve of first compound; for viability, T/C: stronger effect = lower value
Outline: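 Tumor cells were grown as multicellular spheroids with stromal HUVEC and mesenchymal stem cells and treated singly or in combination. Concentrations fell in half-log steps from the clinical Cmax, or from 10 microM where none was known.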
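Note: compound exposure lasted seven days after spheroids formed for three days.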
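Throughout, for viability, T/C: 100% = DMSO vehicle control wells.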

C=CC(=O)N1CCN(c2nc(=O)n(-c3c(C)ccnc3C(C)C)c3nc(-c4c(O)cccc4F)c(F)cc23)C(C)C1 (configuration not stated) + CCN1C(C(=O)NC23CCC(C(=O)O)(CC2)CC3)C(c2cccc(Cl)c2F)C2(C(=O)Nc3cc(Cl)ccc32)C12CCCCC2
IC50 (second compound 0.00949 µM): > 10 µM
IC50 (second compound 0.03 µM): > 10 µM
IC50 (second compound 0.0949 µM): > 10 µM
IC50 (second compound 0.3 µM): > 10 µM
IC50 (second compound 0.949 µM): > 10 µM
IC50 (second compound 3 µM): 8.77 µM
viability, T/C (second compound 0.00949 µM, first compound 0.0316 µM): 94.8%
viability, T/C (second compound 0.00949 µM, first compound 0.1 µM): 79.8%
viability, T/C (second compound 0.00949 µM, first compound 0.316 µM): 85.8%
viability, T/C (second compound 0.00949 µM, first compound 1 µM): 92.5%
viability, T/C (second compound 0.00949 µM, first compound 3.16 µM): 77.6%
viability, T/C (second compound 0.00949 µM, first compound 10 µM): 71.8%
viability, T/C (second compound 0.03 µM, first compound 0.0316 µM): 90.1%
viability, T/C (second compound 0.03 µM, first compound 0.1 µM): 80.2%
viability, T/C (second compound 0.03 µM, first compound 0.316 µM): 93.2%
viability, T/C (second compound 0.03 µM, first compound 1 µM): 89.3%
viability, T/C (second compound 0.03 µM, first compound 3.16 µM): 84.8%
viability, T/C (second compound 0.03 µM, first compound 10 µM): 71.2%
viability, T/C (second compound 0.0949 µM, first compound 0.0316 µM): 101%
viability, T/C (second compound 0.0949 µM, first compound 0.1 µM): 93.3%
viability, T/C (second compound 0.0949 µM, first compound 0.316 µM): 98.6%
viability, T/C (second compound 0.0949 µM, first compound 1 µM): 94.7%
viability, T/C (second compound 0.0949 µM, first compound 3.16 µM): 84%
viability, T/C (second compound 0.0949 µM, first compound 10 µM): 71.4%
viability, T/C (second compound 0.3 µM, first compound 0.0316 µM): 99.7%
viability, T/C (second compound 0.3 µM, first compound 0.1 µM): 81.2%
viability, T/C (second compound 0.3 µM, first compound 0.316 µM): 94.1%
viability, T/C (second compound 0.3 µM, first compound 1 µM): 93.3%
viability, T/C (second compound 0.3 µM, first compound 3.16 µM): 111%
viability, T/C (second compound 0.3 µM, first compound 10 µM): 69.2%
viability, T/C (second compound 0.949 µM, first compound 0.0316 µM): 85.2%
viability, T/C (second compound 0.949 µM, first compound 0.1 µM): 84.7%
viability, T/C (second compound 0.949 µM, first compound 0.316 µM): 89.2%
viability, T/C (second compound 0.949 µM, first compound 1 µM): 77.7%
viability, T/C (second compound 0.949 µM, first compound 3.16 µM): 83.3%
viability, T/C (second compound 0.949 µM, first compound 10 µM): 67%
viability, T/C (second compound 3 µM, first compound 0.0316 µM): 68.6%
viability, T/C (second compound 3 µM, first compound 0.1 µM): 72.6%
viability, T/C (second compound 3 µM, first compound 0.316 µM): 72.4%
viability, T/C (second compound 3 µM, first compound 1 µM): 98.5%
viability, T/C (second compound 3 µM, first compound 3.16 µM): 82.3%
viability, T/C (second compound 3 µM, first compound 10 µM): 46.3%
